Data published in ChEMBL document CHEMBL4813949, “Hypothemycin-Type Resorcylic Acid Lactones with Immunosuppressive Activities from a Podospora sp” (J Nat Prod, 2021).

Key:
Splenocyte [1] = assay: Immunosuppressive activity in BALB/c mouse splenocytes assessed as inhibition of concanavalin A-stimulated T-cell proliferation incubated for 48 hrs by MTT assay; type: functional, cell-based
Splenocyte [2] = assay: Immunosuppressive activity in BALB/c mouse splenocytes assessed as inhibition of LPS-stimulated B-cell proliferation incubated for 48 hrs by MTT assay; type: functional, cell-based
Splenocyte [3] = assay: Cytotoxicity against BALB/c mouse splenocytes at 50 uM incubated for 48 hrs by MTT assay; type: cell-based
T-cell [4] = assay: Induction of apoptosis in ConA-induced mouse splenic T cells assessed as late apoptotic cells at 10 uM after 48 hrs by Annexin V-FITC/propidium iodide staining based flow cytometry analysis (reference value: 0.4 %); type: functional
T-cell [5] = assay: Induction of apoptosis in ConA-induced mouse splenic T cells assessed as early apoptotic cells at 5 uM after 48 hrs by Annexin V-FITC/propidium iodide staining based flow cytometry analysis (reference value: 6.9 %); type: functional
T-cell [6] = assay: Induction of apoptosis in ConA-induced mouse splenic T cells assessed as late apoptotic cells at 20 uM after 48 hrs by Annexin V-FITC/propidium iodide staining based flow cytometry analysis (reference value: 0.4 %); type: functional
T-cell [7] = assay: Induction of apoptosis in ConA-induced mouse splenic T cells assessed as decrease in Bcl-2 protein expression after 48 hrs by Western blotting analysis; type: functional, cell-based; conditions: dose 5-20 µM
T-cell [8] = assay: Induction of apoptosis in ConA-induced mouse splenic T cells assessed as increase in cytochrome C protein expression after 48 hrs by Western blotting analysis; type: functional, cell-based; conditions: dose 5-20 µM
T-cell [9] = assay: Induction of apoptosis in ConA-induced mouse splenic T cells assessed as increase in cleaved caspase 3 protein expression after 48 hrs by Western blotting analysis; type: functional, cell-based; conditions: dose 5-20 µM
T-cell [10] = assay: Induction of apoptosis in ConA-induced mouse splenic T cells assessed as early apoptotic cells at 10 uM after 48 hrs by Annexin V-FITC/propidium iodide staining based flow cytometry analysis (reference value: 6.9 %); type: functional
T-cell [11] = assay: Induction of apoptosis in ConA-induced mouse splenic T cells assessed as decrease in Mcl-1 protein expression after 48 hrs by Western blotting analysis; type: functional, cell-based; conditions: dose 5-20 µM
T-cell [12] = assay: Induction of apoptosis in ConA-induced mouse splenic T cells assessed as increase in Bax protein expression after 48 hrs by Western blotting analysis; type: functional, cell-based; conditions: dose 5-20 µM
T-cell [13] = assay: Induction of apoptosis in ConA-induced mouse splenic T cells assessed as downregulation of JNK phosphorylation after 48 hrs by Western blotting analysis; type: functional, cell-based; conditions: dose 5-20 µM
T-cell [14] = assay: Induction of apoptosis in ConA-induced mouse splenic T cells assessed as decrease in Bcl-xL protein expression after 48 hrs by Western blotting analysis; type: functional, cell-based; conditions: dose 5-20 µM
T-cell [15] = assay: Induction of apoptosis in ConA-induced mouse splenic T cells assessed as early apoptotic cells at 20 uM after 48 hrs by Annexin V-FITC/propidium iodide staining based flow cytometry analysis (reference value: 6.9 %); type: functional
T-cell [16] = assay: Induction of apoptosis in ConA-induced mouse splenic T cells assessed as increase in cleaved caspase 9 protein expression after 48 hrs by Western blotting analysis; type: functional, cell-based; conditions: dose 5-20 µM
T-cell [17] = assay: Induction of apoptosis in ConA-induced mouse splenic T cells assessed as late apoptotic cells at 5 uM after 48 hrs by Annexin V-FITC/propidium iodide staining based flow cytometry analysis (reference value: 0.4 %); type: functional
T-cell [18] = assay: Induction of apoptosis in ConA-induced mouse splenic T cells assessed as late apoptotic cells at 15 uM after 48 hrs by Annexin V-FITC/propidium iodide staining based flow cytometry analysis (reference value: 0.6 %); type: functional
T-cell [19] = assay: Induction of apoptosis in ConA-induced mouse splenic T cells assessed as late apoptotic cells at 5 uM after 48 hrs by Annexin V-FITC/propidium iodide staining based flow cytometry analysis (reference value: 0.6 %); type: functional
T-cell [20] = assay: Induction of apoptosis in ConA-induced mouse splenic T cells assessed as late apoptotic cells at 1 uM after 48 hrs by Annexin V-FITC/propidium iodide staining based flow cytometry analysis (reference value: 0.6 %); type: functional
T-cell [21] = assay: Induction of apoptosis in ConA-induced mouse splenic T cells assessed as early apoptotic cells at 5 uM after 48 hrs by Annexin V-FITC/propidium iodide staining based flow cytometry analysis (reference value: 7.1 %); type: functional
T-cell [22] = assay: Induction of apoptosis in ConA-induced mouse splenic T cells assessed as early apoptotic cells at 1 uM after 48 hrs by Annexin V-FITC/propidium iodide staining based flow cytometry analysis (reference value: 7.1 %); type: functional
T-cell [23] = assay: Induction of apoptosis in ConA-induced mouse splenic T cells assessed as early apoptotic cells at 15 uM after 48 hrs by Annexin V-FITC/propidium iodide staining based flow cytometry analysis (reference value: 7.1 %); type: functional

| Compound | IC50 (Splenocyte [1]) | IC50 (Splenocyte [2]) | Activity (Splenocyte [3]) | further results |
| --- | --- | --- | --- | --- |
| COc1cc(O)c2c(c1)/C=C/C[C@H](O)C(=O)CCCC[C@H](C)OC2=O | > 50 µM | > 50 µM | Non-Toxic |  |
| COc1cc(O)c2c(c1)/C=C/C[C@@H](O)[C@@H](O)C(=O)CCC[C@H](C)OC2=O | 16.5 µM | 14.6 µM | Non-Toxic |  |
| C[C@H](O)C/C=C/[C@@H]1CCCC(=O)Cc2cc(O)cc(O)c2C(=O)O1 | 10.6 µM | 10.3 µM | Non-Toxic | Activity (T-cell [4]): 37.2%; Activity (T-cell [5]): 12.1%; Activity (T-cell [6]): 55.8%; Activity (T-cell [7]): Dose-Dependent Effect; Activity (T-cell [8]): Dose-Dependent Effect; Activity (T-cell [9]): Dose-Dependent Effect; Activity (T-cell [10]): 11%; Activity (T-cell [11]): Dose-Dependent Effect; Activity (T-cell [12]): Dose-Dependent Effect; Activity (T-cell [13]): Dose-Dependent Effect; Activity (T-cell [14]): Dose-Dependent Effect; Activity (T-cell [15]): 8.9%; Activity (T-cell [16]): Dose-Dependent Effect; Activity (T-cell [17]): 26.2% |
| COc1cc(O)c2c(c1)/C=C/CC[C@H](O)C(=O)CCC[C@H](C)OC2=O | > 50 µM | > 50 µM | Non-Toxic |  |
| COc1cc(O)c2c(c1)/C=C/C[C@H](O)[C@@H](O)C(=O)CCC[C@H](C)OC2=O | > 50 µM | > 50 µM | Non-Toxic |  |
| C[C@H](O)CCC[C@@H]1CCCC(=O)Cc2cc(O)cc(O)c2C(=O)O1 | > 50 µM | > 50 µM | Non-Toxic |  |
| COc1cc(O)c2c(c1)/C=C/CC[C@H](O)[C@H](O)CCC[C@H](C)OC2=O | > 50 µM | > 50 µM | Non-Toxic |  |
| COc1cc(O)c2c(c1)/C=C/C[C@H](O)[C@@H](O)[C@@H](O)CCC[C@H](C)OC2=O | > 50 µM | > 50 µM | Non-Toxic |  |
| COc1cc(O)c2c(c1)/C=C/C[C@@H](O)[C@H](O)C(=O)/C=C/C[C@H](C)OC2=O | 11.4 µM | 6.8 µM | Non-Toxic |  |
| COc1cc(O)c2c(c1)[C@H]1O[C@@H]1C[C@H](O)[C@H](O)C(=O)CCC[C@H](C)OC2=O | 8.1 µM | 8.5 µM | Non-Toxic |  |
| COc1cc(O)c2c(c1)/C=C/C[C@H](O)[C@@H](O)C(=O)/C=C/C[C@H](C)OC2=O | 24.1 µM | 29.1 µM | Non-Toxic |  |
| C[C@H]1C/C=C/[C@@H](O)[C@@H](O)CC/C=C/c2cc(O)cc(O)c2C(=O)O1 [AIGIALOMYCIN D] | 16.3 µM | 18.4 µM | Non-Toxic |  |
| COc1cc(O)c2c(c1)/C=C/C[C@H](O)[C@H](O)C(=O)C[C@H](O)C[C@H](C)OC2=O | 18.8 µM | 21.9 µM | Non-Toxic |  |
| COc1cc(O)c2c(c1)/C=C/C[C@H](O)[C@H](O)C(=O)/C=C/C[C@H](C)OC2=O | 6 µM | 6.2 µM | Non-Toxic |  |
| COc1cc(O)c2c(c1)/C=C/CCC(=O)[C@@H](O)CCC[C@H](C)OC2=O | > 50 µM | > 50 µM | Non-Toxic |  |
| COc1cc(O)c2c(c1)/C=C/C[C@H](O)[C@H](O)C(=O)CCC[C@H](C)OC2=O | 7.4 µM | 6.4 µM | Non-Toxic | Activity (T-cell [18]): 59.1%; Activity (T-cell [19]): 32.9%; Activity (T-cell [20]): 26.5%; Activity (T-cell [21]): 5.8%; Activity (T-cell [22]): 9.1%; Activity (T-cell [23]): 4.6% |
| COc1cc(O)c2c(c1)/C=C/C[C@@H](O)[C@@H](O)C(=O)/C=C/C[C@H](C)OC2=O | 15.2 µM | 11.8 µM | Non-Toxic |  |
| COc1cc(O)c2c(c1)/C=C/CCC(=O)[C@H](O)CCC[C@H](C)OC2=O | 25.1 µM | 27.7 µM | Non-Toxic |  |
| C[C@H](O)C[C@@H]1CCCCCc2cc(O)cc(O)c2C(=O)O1 | > 50 µM | > 50 µM | Non-Toxic |  |
| COc1c(C)c2c(c(O)c1C/C=C(\C)CCC(=O)OCCN1CCOCC1)C(=O)OC2 [MYCOPHENOLATE MOFETIL] |  | 0.5 µM |  |  |
